Test results published in PubChem BioAssay AID2060907 (Molecular Pharmacology Branch, DTP, NCI, 2025).
pIC50: −log10 of the molar value. Values joined by “and” are separate entries in the source; they are usually repeats but may differ in a detail not shown here. Identical values can stand only once.

System: 388556-164-R-J1-PDC complex spheroid viability
Experiment: Anticancer human tumor 388556-164-R-J1-PDC patient-derived colon adenocarcinoma cell line growth inhibition [RAS]
Details: for viability, T/C: stronger effect = lower value
How it was run: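 Tumour cells grown as complex spheroids with HUVEC endothelial cells and mesenchymal stem cells, treated with RAS pathway inhibitor combinations. Each agent spans half-log steps from near clinical Cmax, or 10 microM where Cmax is unknown.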

[1] = curve of first compound, second compound 0.0316 µM
[2] = curve of first compound, second compound 0.1 µM
[3] = curve of first compound, second compound 0.316 µM
[4] = curve of first compound, second compound 1 µM
[5] = curve of first compound, second compound 3.16 µM
[6] = curve of first compound, second compound 10 µM
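Also: spheroids exposed to compound for 7 days before readout.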
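For viability, T/C in this document: 100% = DMSO vehicle control luminescence.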

CC(C)NCC(C(=O)N1CCN(c2ncnc3c2C(C)CC3O)CC1)c1ccc(Cl)cc1 (stereo not given)
viability, T/C (compound 0.1 µM): 108% [middle of 4 runs]
viability, T/C (compound 0.316 µM): 119% and 102% (3×)
viability, T/C (compound 1 µM): 100% [middle of 4 runs]
viability, T/C (compound 3.16 µM): 100% [middle of 4 runs]
viability, T/C (compound 10 µM): 103% [middle of 4 runs]
pIC50 (curve of compound): < 5.00

CCc1c2c(nc3ccc(O)cc13)-c1cc3c(c(=O)n1C2)COC(=O)[C@]3(O)CC + C#Cc1c(F)ccc2cc(O)cc(-c3ncc4c(N5CC6CCC(C5)N6)nc(OCC56CCCN5CC(F)C6)nc4c3F)c12
pIC50 [1]: 7.03
pIC50 [2]: 6.98
pIC50 [3]: 7.01
pIC50 [4]: 7.11
pIC50 [5]: 7.07
pIC50 [6]: 7.37
viability, T/C (second compound 0.0316 µM, first compound 0.000949 µM): 94.4%
viability, T/C (second compound 0.0316 µM, first compound 0.003 µM): 96.1%
viability, T/C (second compound 0.0316 µM, first compound 0.00949 µM): 83.6%
viability, T/C (second compound 0.0316 µM, first compound 0.03 µM): 69%
viability, T/C (second compound 0.0316 µM, first compound 0.0949 µM): 50.4%
viability, T/C (second compound 0.0316 µM, first compound 0.3 µM): 36.2%
viability, T/C (second compound 0.1 µM, first compound 0.000949 µM): 108%
viability, T/C (second compound 0.1 µM, first compound 0.003 µM): 82.4%
viability, T/C (second compound 0.1 µM, first compound 0.00949 µM): 84.4%
viability, T/C (second compound 0.1 µM, first compound 0.03 µM): 70.3%
viability, T/C (second compound 0.1 µM, first compound 0.0949 µM): 52.6%
viability, T/C (second compound 0.1 µM, first compound 0.3 µM): 31.6%
viability, T/C (second compound 0.316 µM, first compound 0.000949 µM): 93.6%
viability, T/C (second compound 0.316 µM, first compound 0.003 µM): 94.8%
viability, T/C (second compound 0.316 µM, first compound 0.00949 µM): 71.4%
viability, T/C (second compound 0.316 µM, first compound 0.03 µM): 67.2%
viability, T/C (second compound 0.316 µM, first compound 0.0949 µM): 55.8%
viability, T/C (second compound 0.316 µM, first compound 0.3 µM): 25.5%
viability, T/C (second compound 1 µM, first compound 0.000949 µM): 92.1%
viability, T/C (second compound 1 µM, first compound 0.003 µM): 89%
viability, T/C (second compound 1 µM, first compound 0.00949 µM): 60.5%
viability, T/C (second compound 1 µM, first compound 0.03 µM): 71.4%
viability, T/C (second compound 1 µM, first compound 0.0949 µM): 50.5%
viability, T/C (second compound 1 µM, first compound 0.3 µM): 23.3%
viability, T/C (second compound 3.16 µM, first compound 0.000949 µM): 80.2%
viability, T/C (second compound 3.16 µM, first compound 0.003 µM): 72.8%
viability, T/C (second compound 3.16 µM, first compound 0.00949 µM): 66.2%
viability, T/C (second compound 3.16 µM, first compound 0.03 µM): 60.1%
viability, T/C (second compound 3.16 µM, first compound 0.0949 µM): 53.8%
viability, T/C (second compound 3.16 µM, first compound 0.3 µM): 20.8%
viability, T/C (second compound 10 µM, first compound 0.000949 µM): 72.4%
viability, T/C (second compound 10 µM, first compound 0.003 µM): 61.4%
viability, T/C (second compound 10 µM, first compound 0.00949 µM): 63%
viability, T/C (second compound 10 µM, first compound 0.03 µM): 55.1%
viability, T/C (second compound 10 µM, first compound 0.0949 µM): 41.1%
viability, T/C (second compound 10 µM, first compound 0.3 µM): 20.6%

CC(Nc1ccc2c(c1)OCCn1cc(N3C(=O)OCC3C(F)F)nc1-2)C(N)=O (stereo not given) + C#Cc1c(F)ccc2cc(O)cc(-c3ncc4c(N5CC6CCC(C5)N6)nc(OCC56CCCN5CC(F)C6)nc4c3F)c12
pIC50 [1]: < 5.00
pIC50 [2]: < 5.00
pIC50 [3]: < 5.00
pIC50 [4]: 5.09
pIC50 [5]: 5.53
pIC50 [6]: 5.98
viability, T/C (second compound 0.0316 µM, first compound 0.0316 µM): 94.9%
viability, T/C (second compound 0.0316 µM, first compound 0.1 µM): 95.5%
viability, T/C (second compound 0.0316 µM, first compound 0.316 µM): 94%
viability, T/C (second compound 0.0316 µM, first compound 1 µM): 78.8%
viability, T/C (second compound 0.0316 µM, first compound 3.16 µM): 76.6%
viability, T/C (second compound 0.0316 µM, first compound 10 µM): 66.6%
viability, T/C (second compound 0.1 µM, first compound 0.0316 µM): 93.6%
viability, T/C (second compound 0.1 µM, first compound 0.1 µM): 90.7%
viability, T/C (second compound 0.1 µM, first compound 0.316 µM): 83.3%
viability, T/C (second compound 0.1 µM, first compound 1 µM): 81%
viability, T/C (second compound 0.1 µM, first compound 3.16 µM): 77%
viability, T/C (second compound 0.1 µM, first compound 10 µM): 62.3%
viability, T/C (second compound 0.316 µM, first compound 0.0316 µM): 94.8%
viability, T/C (second compound 0.316 µM, first compound 0.1 µM): 84.3%
viability, T/C (second compound 0.316 µM, first compound 0.316 µM): 74.2%
viability, T/C (second compound 0.316 µM, first compound 1 µM): 69.9%
viability, T/C (second compound 0.316 µM, first compound 3.16 µM): 72%
viability, T/C (second compound 0.316 µM, first compound 10 µM): 51.9%
viability, T/C (second compound 1 µM, first compound 0.0316 µM): 82.1%
viability, T/C (second compound 1 µM, first compound 0.1 µM): 89.9%
viability, T/C (second compound 1 µM, first compound 0.316 µM): 58.1%
viability, T/C (second compound 1 µM, first compound 1 µM): 69.4%
viability, T/C (second compound 1 µM, first compound 3.16 µM): 69.2%
viability, T/C (second compound 1 µM, first compound 10 µM): 43.6%
viability, T/C (second compound 3.16 µM, first compound 0.0316 µM): 82.4%
viability, T/C (second compound 3.16 µM, first compound 0.1 µM): 63.2%
viability, T/C (second compound 3.16 µM, first compound 0.316 µM): 64.2%
viability, T/C (second compound 3.16 µM, first compound 1 µM): 59.5%
viability, T/C (second compound 3.16 µM, first compound 3.16 µM): 53.3%
viability, T/C (second compound 3.16 µM, first compound 10 µM): 38.4%
viability, T/C (second compound 10 µM, first compound 0.0316 µM): 59.4%
viability, T/C (second compound 10 µM, first compound 0.1 µM): 57.2%
viability, T/C (second compound 10 µM, first compound 0.316 µM): 55.1%
viability, T/C (second compound 10 µM, first compound 1 µM): 50.8%
viability, T/C (second compound 10 µM, first compound 3.16 µM): 29.5%
viability, T/C (second compound 10 µM, first compound 10 µM): 31.1%
